Data as given in ChEMBL document CHEMBL3526131, “Involvement of organic anion-transporting polypeptides in the hepatic uptake of dioscin in rats and humans” (Drug Metab Dispos, 2013).

How the values were obtained:
[1] = system: Hepatocyte; test: Cellular uptake in Wistar rat hepatocytes at 5 uM after 2 mins; assay type: ADME, cell-based
[2] = system: Liver; test: Drug uptake in Wistar rat liver at 5 uM after 1 to 30 mins by LC-MS/MS analysis in presence of cyclosporin A; assay type: ADME, tissue-based; details: in vivo
[3] = molecular target: T1, Solute carrier organic anion transporter family member 1B3 (Homo sapiens, UniProt Q9NPD5); test: Cellular uptake in HEK293 cells expressing OATP1B3 (unknown origin) assessed as inhibition of cyclosporin A-mediated drug transport; assay type: ADME, cell-based
T1 sequence (Q9NPD5 whole entry): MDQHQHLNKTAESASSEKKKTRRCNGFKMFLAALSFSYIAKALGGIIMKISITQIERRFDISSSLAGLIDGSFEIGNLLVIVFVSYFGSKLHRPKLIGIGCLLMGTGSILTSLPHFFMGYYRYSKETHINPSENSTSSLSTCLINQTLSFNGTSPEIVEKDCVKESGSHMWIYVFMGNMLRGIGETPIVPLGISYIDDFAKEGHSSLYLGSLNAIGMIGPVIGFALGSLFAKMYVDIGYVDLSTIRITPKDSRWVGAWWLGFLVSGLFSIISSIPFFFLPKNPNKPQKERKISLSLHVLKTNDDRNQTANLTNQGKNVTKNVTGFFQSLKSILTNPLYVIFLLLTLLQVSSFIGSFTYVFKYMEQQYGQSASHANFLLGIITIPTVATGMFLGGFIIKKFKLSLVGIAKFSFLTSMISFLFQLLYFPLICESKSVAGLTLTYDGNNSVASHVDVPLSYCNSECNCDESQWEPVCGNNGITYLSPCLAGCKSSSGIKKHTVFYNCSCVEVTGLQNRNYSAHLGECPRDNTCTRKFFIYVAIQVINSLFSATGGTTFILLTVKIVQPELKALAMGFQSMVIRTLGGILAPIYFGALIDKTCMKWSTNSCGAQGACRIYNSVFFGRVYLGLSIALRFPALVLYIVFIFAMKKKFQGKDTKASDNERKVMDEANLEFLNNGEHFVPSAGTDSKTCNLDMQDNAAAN

[4] = system: Liver; test: Drug uptake in Wistar rat liver at 5 uM after 1 to 30 mins by LC-MS/MS analysis in presence of digoxin; assay type: ADME, tissue-based; details: in vivo
[5] = molecular target: T1, Solute carrier organic anion transporter family member 1B3; test: Cellular uptake in HEK293 cells expressing OATP1B3 (unknown origin) assessed as inhibition of rifampicin-mediated drug transport; assay type: ADME, cell-based
[6] = Drug uptake in MDCK2 cells expressing OATP1B1 (unknown origin) at 2.5 uM after 30 to 180 mins by LC-MS/MS analysis; assay type: ADME, cell-based, Canis lupus familiaris; details: dog, mdck-ii
[7] = system: Liver; test: Drug uptake in Wistar rat liver assessed as liver uptake index at 0.2 mg/kg, iv in presence of rifampicin; assay type: ADME, organism-based; set-up: dose 0.2 mg/kg, route intravenous; details: in vivo
[8] = system: Hepatocyte; test: Cellular uptake in Wistar rat hepatocytes at 2.5 uM in presence of TEA; assay type: ADME, cell-based
[9] = system: Hepatocyte; test: Cellular uptake in Wistar rat hepatocytes at 2.5 uM after 2 mins; assay type: ADME, cell-based
[10] = system: Hepatocyte; test: Cellular uptake in Wistar rat hepatocytes assessed as rate of drug transport per 10^6 cells at 0.2 to 2.5 uM; assay type: ADME, cell-based
[11] = system: Liver; test: Drug uptake in Wistar rat liver at 5 uM after 1 to 30 mins by LC-MS/MS analysis in presence of ibuprofen; assay type: ADME, tissue-based; details: in vivo
[12] = system: Hepatocyte; test: Cellular uptake in Wistar rat hepatocytes at 2.5 uM in presence of K+; assay type: ADME, cell-based
[13] = system: HEK293; test: Cellular uptake in HEK293 cells at 2.5 uM after 1 min; assay type: ADME, cell-based; details: human, hek293, 1 min
[14] = system: Liver; test: Drug uptake in Wistar rat liver at 5 uM after 1 to 30 mins by LC-MS/MS analysis in presence of glycyrrhizic acid; assay type: ADME, tissue-based; details: in vivo
[15] = system: Liver; test: Drug uptake in Wistar rat liver at 5 uM after 1 to 30 mins by LC-MS/MS analysis in presence of TEA; assay type: ADME, tissue-based; details: in vivo
[16] = system: Hepatocyte; test: Cellular uptake in Wistar rat hepatocytes at 2.5 uM in presence of PAH; assay type: ADME, cell-based
[17] = system: Liver; test: Drug uptake in Wistar rat liver at 2.5 uM after 30 mins; assay type: ADME, tissue-based; details: in vivo, 0.5 h
[18] = Fraction unbound in Wistar rat blood; assay type: ADME, tissue-based
[19] = Drug uptake in MDCK2 cells expressing OATP1B1/MRP2 (unknown origin) at 2.5 uM after 30 to 180 mins by LC-MS/MS analysis; assay type: ADME, cell-based, Canis lupus familiaris; details: dog, mdck-ii
[20] = Cellular uptake in Wistar rat hepatocytes at 0.2 to 2.5 uM; assay type: ADME, cell-based, Hepatocyte
[21] = system: Liver; test: Drug uptake in Wistar rat liver at 5 uM after 15 mins by LC-MS/MS analysis; assay type: ADME, tissue-based; details: in vivo, 0.25 h
[22] = molecular target: T1, Solute carrier organic anion transporter family member 1B3; test: (§1) Activity at OATP1B3 (unknown origin) expressed in HEK293 cells assessed as compound transport; assay type: ADME, cell-based; details: hek293
[23] = molecular target: T2, OATP1B3 (Homo sapiens, UniProt Q9NPD5); test: as §1; assay type: ADME, cell-based; details: HEK293 cells expressing OATP1B3
T2 sequence (Q9NPD5 whole entry): T1 sequence (Q9NPD5 whole entry)

[24] = system: Hepatocyte; test: Cellular uptake in Wistar rat hepatocytes at 2.5 uM in presence of glycyrrhizic acid; assay type: ADME, cell-based
[25] = Drug uptake in Wistar rat liver assessed as hepatic extraction ratio at 2.5 uM after 1 to 60 mins; assay type: ADME, tissue-based; details: read-out: ERH
[26] = system: Hepatocyte; test: Cellular uptake in Wistar rat hepatocytes at 2.5 uM in presence of rifampicin; assay type: ADME, cell-based
[27] = Fraction unbound in Wistar rat plasma at 2.5 uM by LC-MS/MS analysis; assay type: ADME, cell-free
[28] = system: Hepatocyte; test: Cellular uptake in Wistar rat hepatocytes at 2.5 uM in presence of Na+; assay type: ADME, cell-based
[29] = system: Liver; test: Drug uptake in Wistar rat liver assessed as liver uptake index at 0.2 mg/kg, iv in presence of cyclosporin A; assay type: ADME, organism-based; set-up: dose 0.2 mg/kg, route intravenous; details: in vivo
[30] = molecular target: T1, Solute carrier organic anion transporter family member 1B3; test: Cellular uptake in HEK293 cells expressing OATP1B3 (unknown origin) assessed as inhibition of (-)-epigallocatechin gallate-mediated drug transport; assay type: ADME, cell-based
[31] = Drug uptake in MDCK2 cells at 2.5 uM after 30 to 180 mins by LC-MS/MS analysis; assay type: ADME, cell-based, Canis lupus familiaris; details: dog, mdck-ii
[32] = system: Liver; test: Drug uptake in Wistar rat liver at 5 uM after 1 to 30 mins by LC-MS/MS analysis in presence of rifampicin; assay type: ADME, tissue-based; details: in vivo
[33] = Clearance in human hepatocytes assessed per 10^6 cells; assay type: ADME, cell-based, Hepatocyte; details: read-out: CLH
[34] = system: Hepatocyte; test: Cellular uptake in Wistar rat hepatocytes at 2.5 uM in presence of digoxin; assay type: ADME, cell-based
[35] = molecular target: T1, Solute carrier organic anion transporter family member 1B3; test: Cellular uptake in HEK293 cells expressing OATP1B3 (unknown origin) assessed as inhibition of telmisartan-mediated drug transport; assay type: ADME, cell-based
[36] = Ratio of drug level in blood to plasma in Wistar rat at 2.5 uM after 5 mins by LC-MS/MS analysis; assay type: ADME
[37] = system: Hepatocyte; test: Cellular uptake in Wistar rat hepatocytes at 2.5 uM in presence of ibuprofen; assay type: ADME, cell-based
[38] = Intrinsic clearance in human; assay type: ADME, organism-based; details: in vivo
[39] = Drug uptake in Wistar rat liver assessed as hepatic extraction ratio at 2.5 uM after 1 to 60 mins in presence of cyclosporin A; assay type: ADME, tissue-based; details: with cyclosporin A, read-out: ERH
[40] = Drug uptake in Wistar rat liver assessed as hepatic extraction ratio at 2.5 uM after 1 to 60 mins in presence of rifampicin; assay type: ADME, tissue-based; details: with rifampicin, read-out: ERH
[41] = Plasma clearance in Wistar rat; assay type: ADME, organism-based
[42] = system: Hepatocyte; test: Cellular uptake in Wistar rat hepatocytes at 2.5 uM in presence of cyclosporin A; assay type: ADME, cell-based
[43] = system: Liver; test: Drug uptake in Wistar rat liver at 5 uM after 1 to 30 mins by LC-MS/MS analysis in presence of PAH; assay type: ADME, tissue-based; details: in vivo
[44] = system: Liver; test: Drug uptake in Wistar rat liver assessed as liver uptake index at 0.2 mg/kg, iv; assay type: ADME, organism-based; set-up: dose 0.2 mg/kg, route intravenous; details: in vivo
[45] = system: OATP1B1/MRP2; test: Efflux ratio of permeability from basolateral to apical side to apical to basolateral side in MDCK2 cells expressing OATP1B1/MRP2 (unknown origin) at 1 uM after 30 to 180 mins by LC-MS/MS analysis; assay type: ADME, cell-based, Canis lupus familiaris, MDCK-II; details: dog
[46] = system: OATP1B1; test: Efflux ratio of permeability from basolateral to apical side to apical to basolateral side in MDCK2 cells expressing OATP1B1 (unknown origin) at 1 uM after 30 to 180 mins by LC-MS/MS analysis; assay type: ADME, cell-based, Canis lupus familiaris, MDCK-II; details: dog, MDCK

C[C@H]1O[C@@H](O[C@H]2[C@@H](O)C[C@H](O[C@H]3[C@@H](O)C[C@H](O[C@H]4CC[C@@]5(C)[C@H](CC[C@@H]6[C@@H]5C[C@@H](O)[C@]5(C)[C@@H](C7=CC(=O)OC7)CC[C@]65O)C4)O[C@@H]3C)O[C@@H]2C)C[C@H](O)[C@@H]1O [DIGOXIN]
Drug uptake [1]: Active

C[C@@H]1CC[C@@]2(OC1)O[C@H]1C[C@H]3[C@@H]4CC=C5C[C@@H](O[C@@H]6O[C@H](CO)[C@@H](O[C@@H]7O[C@@H](C)[C@H](O)[C@@H](O)[C@H]7O)[C@H](O)[C@H]6O[C@@H]6O[C@@H](C)[C@H](O)[C@@H](O)[C@H]6O)CC[C@]5(C)[C@H]4CC[C@]3(C)[C@H]1[C@@H]2C [DIOSCIN]
Drug uptake [2]: Not Active
Ki [3]: 1.43 µM
Drug uptake [4]: Not Active
Ki [5]: 4.55 µM
Drug uptake [6]: Active
LUI [7]: 5.5%
Drug uptake [8]: Active
Drug uptake [9]: Active
Vmax [10]: 588 pmol/min
Drug uptake [11]: Not Active
Drug uptake [12]: Active
Drug uptake [13]: Active
Drug uptake [14]: Not Active
Drug uptake [15]: Active
Drug uptake [16]: Active
Drug uptake [17]: Active
fraction unbound [18]: 0.079
Drug uptake [19]: Active
Km at up to 2.5 µM [20]: 3.75 µM
Drug uptake [21]: Active
Vmax [22]: 730 pmol/min/mg
Km [23]: 2.08 µM
Drug uptake [24]: Not Active
hepatic extraction ratio at 2.5 µM [25]: 0.15
Drug uptake [26]: Not Active
fraction unbound at 2.5 µM [27]: 0.061
Drug uptake [28]: Active
LUI [29]: 6.9%
Ki [30]: 8.29 µM
Drug uptake [31]: Active
Drug uptake [32]: Not Active
hepatocyte CLint [33]: 35 µL/min/1e6 cells
Drug uptake [34]: Not Active
Ki [35]: 1.03 µM
blood plasma ratio at 5 min, 2.5 µM [36]: 0.771
Drug uptake [37]: Not Active
CLint scaled [38]: 10.1 L/h/kg
hepatic extraction ratio at 2.5 µM [39]: 0.074
hepatic extraction ratio at 2.5 µM [40]: 0.082
clearance [41]: 0.232 L/h/kg
Drug uptake [42]: Not Active
Drug uptake [43]: Active
LUI [44]: 11.9%

C[C@]12CC[C@@H]3c4ccc(OS(=O)(=O)O)cc4CC[C@H]3[C@@H]1CCC2=O [ESTRONE SULFURIC ACID]
efflux ratio at 1 µM [45]: 4.2
efflux ratio at 1 µM [46]: 2.8
